Experimental data taken from patent US9481719B2, “Recombinant production of peptides” (BASF SE, priority 2009, dated 2016).
No end group written: not given here.

Tests used:
E. coli B = experiment: Growth inhibition of E. coli B cultures in LB medium (optical density after 24 h); assay type: cell-based
Protocol: Bacterial growth was monitored by measuring the optical density after 24 h. […] For this, said carboxyl groups were activated with 1-ethyl-3-(3-dimethylaminopropyl)carbodiimide hydrochloride and N-hydroxy-sulfosuccinimide, and amidated by subsequent addition of ammonia.

Escherichia coli = details: compared to the starting fusion; cited from earlier work
Bacillus subtilis = details: compared to the starting fusion; cited from earlier work

Substance: amidated P18 peptide: P18 peptide (SEQ ID NO: 23) whose C-terminal carboxyl group is amidated (PGKWKLFKKIPKFLHLAKKFG-NH2)
- antimicrobial activity after amidating the C-terminal carboxyl group, relative to non-amidated P18 (E. coli B; C-terminal carboxyl group amidated (EDC / N-hydroxy-sulfosuccinimide, ammonia)): improve the antimicrobial activity further

Substance: KWKLFKKIPKFLHLAKKF (P18 Peptide) [SEQ ID NO:6, cecropin A-magainin 2 fusion peptide development described by Shin et al. 1999]
- antibacterial activity with respect to Escherichia coli (Escherichia coli): not adversely affected
- antibacterial activity with respect to Bacillus subtilis (Bacillus subtilis): not adversely affected

Substance: PGKWKLFKKIPKFLHLAKKFG (P18 Peptide) [antimicrobial peptide released by acidic cleavage from a recombinant repetitive precursor protein]
- peptide concentration for complete inhibition of growth (optical density at 600 nm after 24 h<0.15) (E. coli B; E. coli B in LB medium, starting optical density 0.1 at 600 nm, shaking at 37° C., 24 h): ≥ 31 ppm
